Test results published in PubChem BioAssay (NCI).
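Following 48 hours of exposure in 96-well plates, responses at five concentrations were used to interpolate endpoints linearly. TGI denotes the concentration required for complete inhibition of growth.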

Columns and labels:
Test in all cases: DTP human tumour cell line panel, 48 h
[1] = tested on: CAKI-1 renal
[2] = tested on: CCRF-CEM leukemia
[3] = tested on: HCC-2998 colon
[4] = tested on: HCT-15 colon
[5] = tested on: HS 578T breast
[6] = tested on: MDA-MB-231 breast
[7] = tested on: MDA-MB-435
[8] = tested on: MDA-N
[9] = tested on: MOLT-4 leukemia
[10] = tested on: NCI-H460 lung
[11] = tested on: OVCAR-3 ovarian
[12] = tested on: PC-3 prostate
[13] = tested on: SF-268 CNS
[14] = tested on: SF-539 CNS
[15] = tested on: SK-OV-3 ovarian
[16] = tested on: SNB-19 CNS
[17] = tested on: OVCAR-5 ovarian
[18] = tested on: SK-MEL-2 melanoma

Row | Structure (SMILES) | TGI [1] | TGI [2] | TGI [3] | TGI [4] | TGI [5] | TGI [6] | TGI [7] | TGI [8] | TGI [9] | TGI [10] | TGI [11] | TGI [12] | TGI [13] | TGI [14] | TGI [15] | TGI [16] | TGI [17] | TGI [18]
1 | Cc1nc(C)c(N2CCN(C(=O)O)CC2)c(=O)[nH]1 | > 100 µM | > 100 µM | > 100 µM | > 100 µM | > 100 µM | > 100 µM | > 100 µM | > 100 µM | > 100 µM | > 100 µM | > 100 µM | > 100 µM | > 100 µM | > 100 µM | > 100 µM | > 100 µM | – | –
2 | OC(Cc1ccc2ccccc2n1)(C(F)(F)Cl)C(F)(F)Cl | > 10 µM | > 10 µM | > 10 µM | > 10 µM | > 10 µM | > 10 µM | > 10 µM | > 10 µM | > 10 µM | > 10 µM | > 10 µM | > 10 µM | > 10 µM | > 10 µM | > 10 µM | > 10 µM | > 10 µM | –
3 | NC(=O)C(=CNC(=S)Nc1ccc(S(=O)(=O)Nc2ccccn2)cc1)C(N)=O | > 100 µM | > 100 µM | – | > 100 µM | > 100 µM | > 100 µM | > 100 µM | > 100 µM | 5.76 µM | > 100 µM | > 100 µM | > 100 µM | > 100 µM | > 100 µM | > 100 µM | > 100 µM | > 100 µM | > 100 µM
4 | CSc1nn(C)cc2nc(C)nc1-2 | > 100 µM | > 100 µM | – | > 100 µM | > 100 µM | > 100 µM | > 100 µM | > 100 µM | > 100 µM | > 100 µM | > 100 µM | > 100 µM | > 100 µM | > 100 µM | – | > 100 µM | > 100 µM | > 100 µM
5 | Cc1cccc(/C=N\NC(=S)N2CCCCC2)n1 | 3.62 µM | 0.225 µM | > 100 µM | > 100 µM | > 100 µM | – | > 100 µM | > 100 µM | – | 0.788 µM | – | > 100 µM | > 100 µM | – | > 100 µM | > 100 µM | > 100 µM | > 100 µM
6 | CC(C)CC1c2[nH]c3ccccc3c2C[C@H]2C(=O)NC(CCCCNC(=O)OC(C)(C)C)C(=O)N12 (some centres undefined) | > 100 µM | – | – | > 100 µM | 25.6 µM | 51.1 µM | > 100 µM | > 100 µM | 51.8 µM | – | 16.6 µM | 65.5 µM | > 100 µM | – | – | > 100 µM | > 100 µM | 46.8 µM
7 | COc1cccc(C=C2N=C(c3ccccc3)N(n3c(-c4ccccc4)nc4ccccc4c3=O)C2=O)c1 | > 100 µM | > 100 µM | > 100 µM | > 100 µM | > 100 µM | > 100 µM | > 100 µM | > 100 µM | > 100 µM | > 100 µM | – | > 100 µM | > 100 µM | > 100 µM | > 100 µM | > 100 µM | – | –
8 | COc1cc(C(c2cccc3ccccc23)N2C(=O)CCC2C(=O)O)cc(OC)c1OC (centres undefined) | > 100 µM | > 100 µM | – | > 100 µM | > 100 µM | > 100 µM | > 100 µM | > 100 µM | > 100 µM | > 100 µM | > 100 µM | > 100 µM | > 100 µM | > 100 µM | > 100 µM | > 100 µM | > 100 µM | > 100 µM
9 | CC(C)CC(NP(=O)(O)OC1OC(C)C(O)C(O)C1O)C(=O)NC(Cc1c[nH]c2ccccc12)C(=O)O (centres undefined) | > 100 µM | > 100 µM | > 100 µM | > 100 µM | > 100 µM | > 100 µM | > 100 µM | > 100 µM | > 100 µM | > 100 µM | > 100 µM | > 100 µM | > 100 µM | > 100 µM | > 100 µM | > 100 µM | > 100 µM | –
10 | COC(=O)c1nn2ccc3ccccc3c2c1C(=O)OC | > 100 µM | – | – | > 100 µM | > 100 µM | > 100 µM | > 100 µM | > 100 µM | > 100 µM | > 100 µM | – | > 100 µM | > 100 µM | > 100 µM | > 100 µM | > 100 µM | > 100 µM | > 100 µM
11 | CCCC(C)NC(=O)c1ccc(N(C)Cc2cnc3nc(N)nc(N)c3n2)cc1 (centres undefined) | > 100 µM | > 100 µM | – | > 100 µM | 44.2 µM | > 100 µM | 48.2 µM | > 100 µM | > 100 µM | > 100 µM | 46.2 µM | > 100 µM | > 100 µM | 32.3 µM | > 100 µM | > 100 µM | 88.6 µM | 49 µM
12 | CCOC(=O)c1nc2ccccc2nc1Oc1ccc(C#N)cc1 | – | > 100 µM | – | > 100 µM | > 100 µM | – | > 100 µM | > 100 µM | > 100 µM | > 100 µM | > 100 µM | > 100 µM | > 100 µM | > 100 µM | > 100 µM | > 100 µM | > 100 µM | > 100 µM
